For data set [1], the target named is T1, hDAT (Homo sapiens, UniProt Q01959).
T1 construct: expressed in transfected cells; host or cells: HEK-293T (HEK293T), stably transfected
As to the kind of experiment: Neurotransmitter Transporter Uptake Assay Kit, DA reuptake inhibition. In kind it is cell-based. The conditions noted are these: Table 1; inhibition of dopamine reuptake, reduction of RFU. The procedure: DA uptake activity was measured using a Neurotransmitter Transporter Uptake Assay Kit (Molecular Devices, San Jose, CA, USA). […] 2-[4-(2-hydroxyethyl)-1-piperazinyl] ethanesulfonic acid (HEPES) buffer solution (150 mM NaCl, 5 mM KCl, 10 mM glucose, 2 mM CaCl2, 1 mM MgCl2, 10 mM HEPES, pH 7.4) was used to wash cells three times before the experiment. Cells in the experimental group were treated with six different compounds. After 15 min, the dye solution was added and the fluorescence intensity was measured for 30 min in the 520 nm range with excitation at 440 nm. The inhibition percentages were calculated using the end point measurements at 30 min. The four-parameter logistic nonlinear regression model was used to determine the half maximal inhibitory concentration (IC50) values.
The DA reuptake inhibitory activities of the six repurposed drugs were evaluated using the Neurotransmitter Transporter Uptake Assay Kit through dose-response assays. This assay employs a novel fluorescent indicator dye designed to mimic neurotransmitters, along with a masking dye to quench extracellular fluorescence, enabling precise measurement of transporter-mediated uptake activity.

For data set [2] the following is noted: cited from earlier work.

Structures are written as SMILES. Where a name gives a salt, the structure may show the parent alone. Read-outs that look alike come from different tables or passages of the source.

T1 sequence (Q01959 whole entry): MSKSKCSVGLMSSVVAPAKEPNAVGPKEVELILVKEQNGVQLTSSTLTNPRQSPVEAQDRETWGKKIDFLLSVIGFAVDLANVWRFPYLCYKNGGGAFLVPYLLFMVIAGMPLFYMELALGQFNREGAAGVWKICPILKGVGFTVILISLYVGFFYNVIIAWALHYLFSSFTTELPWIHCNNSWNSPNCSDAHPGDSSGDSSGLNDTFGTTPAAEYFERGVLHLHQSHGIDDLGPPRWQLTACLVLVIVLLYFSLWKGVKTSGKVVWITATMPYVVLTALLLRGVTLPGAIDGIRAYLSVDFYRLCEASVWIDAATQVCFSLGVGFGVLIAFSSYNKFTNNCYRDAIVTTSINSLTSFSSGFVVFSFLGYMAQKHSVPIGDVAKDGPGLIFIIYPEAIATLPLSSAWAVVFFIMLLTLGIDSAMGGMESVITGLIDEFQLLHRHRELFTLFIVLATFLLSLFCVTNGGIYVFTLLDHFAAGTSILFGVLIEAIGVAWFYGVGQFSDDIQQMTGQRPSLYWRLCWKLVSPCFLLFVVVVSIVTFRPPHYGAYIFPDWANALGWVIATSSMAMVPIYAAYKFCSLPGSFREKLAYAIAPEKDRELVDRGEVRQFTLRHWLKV

In data set [1], `CCCN1CCCC[C@H]1C(=O)Nc1c(C)cccc1C` [Compound 4, Ropivacaine] returned an IC50 of 753 nM. In data set [2] (previous research), the “CNS and cardiac toxicity” value is “mild CNS and cardiac toxicity”.
On to `Cc1cccc(C)c1NC(=O)C1CCCCN1C` (stereo not drawn) [Compound 14, Mepivacaine hydrochloride], for which the half-inhibitory concentration (IC50) in data set [1] was found to be 542 nM. Moreover, the metabolism entry in data set [2] (restricts application to peripheral nerve blockade) is reported as “rapid metabolism”.
In data set [1], `CCCCN1CCCC[C@H]1C(=O)Nc1c(C)cccc1C` [Compound 19, Levobupivacaine] registered an IC50 of 1210 nM. For the same compound, the “CNS and cardiac toxicity” value in data set [2] (particularly under acidosis and hyperkalemia) was “mild CNS and cardiac toxicity”.

Source of the values: PMC12398837 (Journal of Pharmaceutical Analysis, 2025).
